Assay results reported in patent EP4140481A1, “PROTEIN-OLIGOMER BINDING AGENTS AND THERAPEUTIC USES THEREOF” (Galyan Bio, Inc., priority 2021, dated 2023).

Legend:
mHTT = experiment: Immunohistochemistry of nuclear diffuse mHTT in brain tissue from the R6/2 study; assay type: in vivo, R6/2 mice; conditions: 33 mg/kg i.p. QD; treated animals n= 9 versus vehicle treated TG mice; p = 0.01
Experimental: Preparation of Immunohistology slides - Brain tissue collected within the animal study was prepared for IHC studies by Charles River staff. The brains were fixed by immersion in 4% paraformaldehyde for at least 24 h after which brain samples were cryoprotected by 30% sucrose solution for 72 h. Finally, the brain samples were flash-frozen in liquid nitrogen and stored at -80 °C. The brain samples were cut using a microtome cryostat system, producing coronal brain tissue sections of 40 µm thickness. Those were mounted on individual adhesive-coated microscope glass slides with frosted ends.
Staining - Goat anti-Rabbit IgG (H+L) Alexa Fluor 647 (1:500, ThermoFisher Invitrogen) was used as a secondary antibody for binding to CBP antibody. […]
The blocking buffer was freshly prepared and consisted of PBS (Sigma-Aldrich) with 5% normal goat serum (NGS), 0.2% BSA, 0.2% lysine and 0.2% glycine. […] On day six, samples were washed and then incubated with DAPI containing mounting medium Fluoroshield (Sigma-Aldrich), in order to counterstain the nuclei and preserve the fluorescence. […]
Results - Figures 23A-23F show the distinction of inclusion bodies (IB) and diffuse species of mHTT by confocal fluorescence imaging. […] Consequently, this distinction of diffuse mHTT and IBs was implemented in the analysis macro to quantify the different species of mHTT within striatum and cortex of R6/2 mice. […]

Oral bioavailability = conditions: mouse, in vivo, mice
C. elegans = C. elegans growth and development (toxicity) assay; assay type: in vivo; conditions: doses 32nM to 500µM, hatching to first day of adulthood
Experimental: Delivery strategy: The indicated compound dosage is based on the total volume of the plates with the assumption that the water-soluble compound diffuses throughout the agar. The compound is dissolved in a working solution and then combined directly with the food bacteria before seeding on agar plates. The food spots are dried slowly, allowing the compound to diffuse into the food bacteria and the agar for 24 hours.
Growth and development assay results: High-resolution imaging and automated detection were used to precisely measure the growth rate of animals from hatching to the first day of adulthood (total of 4 days). The C. elegans growth and development assay is highly sensitive and widely used in toxicology studies. Performing this test over a range of doses helps to identify a set of doses that have a physiological impact and exclude dose ranges that are likely too toxic to benefit lifespan.

[1] = biological target: T1, Wild type (wt) α-Synuclein (Homo sapiens, UniProt P37840); experiment: Dynamic Light Scattering (DLS), induced aggregation; assay type: biochemical
T1 construct: purchased rPeptide, Watkinsville, Georgia S-1001-2
Experimental: In order to induce the formation of smaller oligomers of the α-Synuclein protein it was hypothised that using DMSO as a solvent induces oligomer formation Kostka et al., THE JOURNAL OF BIOLOGICAL […] VOL. 283, NO. 16, pp. 10992-11003, April 18, 2008). In order to assess the ability of certain compounds to induce formation of aggregates from protein-oligomers, the following experiments were conducted.
Proteins were ultracentrifuged with 50,000 rpm (rounds per minute) for one hour at 2 °C. The supernatant was used for DLS measurements. DLS measurements were conducted with Malvern Zetasizer Nano (Malvern Panalytical Ltd, United Kingdom).
Wild type (wt) α-Synuclein (catalog S-1001-2, rPeptide, Watkinsville, Georgia) was solved in 20 mM phosphate, pH 7.4 buffer.
As mentioned, it was described that 1% DMSO was used to induce α-Synuclein to form small oligomers (Kostka et al., THE JOURNAL OF BIOLOGICAL […] VOL. 283, NO. 16, pp. 10992-11003, April 18, 2008). 1% DMSO (Sigma) was used to trigger small oligomer formation of wt α-Synuclein. 1% DMSO was added to wt α-Synuclein to measure the effect of DMSO alone on wt α-Synuclein. With DLS there is no volume difference detectable between wt α-Synuclein with and without 1% DMSO (Figure 44). […] 1% DMSO induces the formation of small oligomers, which interact with Compound 4 and form larger aggregates of the oligomers.

[2] = by volume, 70 µM equimolar Compound 4 solved in methanol
[3] = by volume, equimolar Compound 4 solved in DMSO (1% DMSO)

Structure (SMILES)	Nuclear diffuse mHTT reduction in the cortex (mHTT)	bioavailability (Oral bioavailability)	highest concentration at which no adverse effects were detected (C. elegans)	Blood Brain Barrier Penetrability AUCbrain/AUCplasma (Compound 4)	penetration of the blood brain area in vivo (intravenous, 1 mg/kg body weight, brain tissue)	aggregation of wt α-Synuclein ([1]; Compound 4 solved in DMSO)	% Volume, Peak 2 [1, 2]	% Volume, Peak 3 [1, 2]	Size, Peak 1 [1, 2]	Size, Peak 2 [1, 2]	Size, Peak 3 [1, 2]	% Volume, Peak 1 [1, 3]	% Volume, Peak 2 [1, 3]	Size, Peak 1 [1, 3]	Size, Peak 2 [1, 3]
Cc1[nH]c2ccc(C(=O)NCCN(C(C)C)C(C)C)cc2c1C [Compound 22]	40%	10%													
CCc1c(C)[nH]c2ccc(C(=O)NCCN(CC)CC)cc12 [Compound 4, N-(2-(diethylamino)ethyl)-3-ethyl-2-methyl-1H-indole-5-carboxamide]			4 µM	AUCbrain/AUCplasma = 2.27	penetrates the blood brain area	forms aggregates	0.3%	0.3%	6.139 nm	80.87 nm	338.7 nm	96.2%	3.8%	144.0 nm	4794 nm
